Entries after “also recorded” stand apart in the source; their conditions may differ. Where two headings read alike, the source gives them in different places.
How the values were obtained:
[1] = Subplantar edema caused by carrageenan (antiinflammatory activity); format: in vivo; set-up: Volume of Paw in No. of Hours after the Treatment: 0 / Volume of Paw in No. of Hours after the Treatment: 1 / Volume of Paw in No. of Hours after the Treatment: 2 / Volume of Paw in No. of Hours after the Treatment: 3 / Volume of Paw in No. of Hours after the Treatment: 4 / Volume of Paw in No. of Hours after the Treatment: 5: dose or concentration left out as unconfirmed; details: rats, oral; for AREA % Inhibition vs. Control / AREA Absolute Value: paw volume 0-5 h, acetylsalicylic acid 250, ibuprofen 100, paracetamol 100, diflunisal 25, MR 713 25 mg/kg
Source text: The experiments have been carried out with rats and carrageenan has been used as the agent causing edema.
Subplantar Edema Caused by Carrageenan in Rats

[2] = Contorsions caused by phenylquinone (analgesic activity); format: in vivo; details: mice, oral; phenylquinone 30 min after; acetylsalicylic acid 250, ibuprofen 100, paracetamol 100, diflunisal 25, MR 713 25 mg/kg
Source text: The analgesic activity has been tested in mice using the contorsion test caused by phenylquinone. […] Phenylquinone has been administered thirty minutes after the substance under test and the results obtained are reported in Table II.
Contorsions Caused by Phenylquinone in Mice

Solubility = format: physicochemical
[3] = Plasmatic levels half-life, oral; format: in vivo; details: rats, at equal dose
Experimental: The pharmacodynamic tests carried out in rats and administering MR 713 by the oral route in the doses of 25, 50, and 100 mg/kg, show a half-life time of plasmatic levels, which is possible to calculate in the dose of 25 mg/kg, of about eleven hours. […] The pharmacodynamic tests permit to administer one or at the most two daily doses of MR 713.

Acute toxicity, oral = format: in vivo; details: mice
[4] = rats fasted 18 h, oral, 6 h, MR 713 25 mg/kg

Row | Compound | AREA % Inhibition vs. Control [1] [%] | AREA Absolute Value [1] | % Inhibition vs. Controls (contorsions) [2] [%] | Average No. of Contorsions [2] | No. of Animals with Contorsions [2] | Average Size of Ulcer in mm (rat, in vivo, po, 25 mg/kg) [mm] | gastric lesions / gastric tolerability [4] | also measured
1 | O=C(O)c1cc(-c2ccc(F)cc2F)ccc1O [Diflunisal, diflunisal] | 30.0 | 190.7 | 99.1 | 0.2 ± 0.2 | 1/9 | 0.7 ± 0.4 | – | Volume of Paw in No. of Hours after the Treatment: 0 ([1]; 0 h): 21.2; Volume of Paw in No. of Hours after the Treatment: 1 ([1]; 1 h): 25.6; Volume of Paw in No. of Hours after the Treatment: 2 ([1]; 2 h): 29.7; Volume of Paw in No. of Hours after the Treatment: 3 ([1]; 3 h): 31.0; Volume of Paw in No. of Hours after the Treatment: 4 ([1]; 4 h): 33.4; Volume of Paw in No. of Hours after the Treatment: 5 ([1]; 5 h): 33.1
2 | CC(C)Cc1ccc(C(C)C(=O)O)cc1 (stereo not shown) [Ibuprofen, ibuprofen] | 40.0 | 163.7 | 99.1 | 0.2 ± 0.1 | 2/10 | 2.3 ± 0.7 | cause gastric lesions | –
3 | O=C(O)COc1ccc(-c2ccc(F)cc2F)cc1 [MR 713, (2',4'-difluoro-4-biphenyl)oxyacetic acid] | 31.0 | 186.4 | 54.0 | 10.8 ± 2.8 | 9/10 | 0.3 ± 0.1 | – | solubility in chlorinated hydrocarbons (Solubility; chlorinated hydrocarbons): insoluble; solubility in hot lower alcohols (Solubility; hot lower alcohols): soluble; solubility in water (Solubility; water): essentially insoluble; antiinflammatory activity compared with reference drugs ([1]; MR 713 25 mg/kg, vs diflunisal same dose, paracetamol and ibuprofen four times larger dose, acetylsalicylic acid ten times larger dose, 25 mg/kg): essentially the same as diflunisal; also recorded: substantially superior to paracetamol even when the latter is used in doses four times larger; also recorded: lower than that of ibuprofen; also recorded: essentially equivalent to the activity of acetylsalicylic acid; half-life time of plasmatic levels, compared with other drugs [3]: substantially superior to the action of diflunisal; acute toxicity (Acute toxicity, oral): very low acute toxicity; LD50 (Acute toxicity, oral; mouse, in vivo, body weight, read-out: DL50 (the source's name)): 790 mg/kg; gastric lesions / gastric tolerability (rat, in vivo, po, 25 mg/kg): causes even less gastric lesions as compared with drugs which are well-known to be tolerated at the gastric level, such as paracetamol and diflunisal
4 | CC(=O)Nc1ccc(O)cc1 [Paracetamol, p-acetylaminophenol] | 10.0 | 245.7 | 63.4 | 8.6 ± 3.3 | 5/10 | 0.6 ± 0.4 | – | –
5 | CC(=O)Oc1ccccc1C(=O)O [acetylsalicylic acid, acetyl salicylic acid] | 33.0 | 182.4 | 100 | 0 | 0/10 | 3.7 ± 0.8 | cause gastric lesions | –

Reference: US4440786A, “Compounds with antiinflammatory and analgesic activity, process for the preparation thereof and pharmaceutical compositio ns therefrom” (Ausonia Farmaceutici s.r.l., priority 1981, dated 1984)
